Experimental findings from publication PMC7955127, “Preclinical small molecule WEHI-7326 overcomes drug resistance and elicits response in patient-derived xenograft models of human treatment-refractory tumors” (Cell Death & Disease, 2021) are described below.

The subject of assay [1] is SW480. Nature of the assay: Cell cycle analysis (G2/M arrest, PI staining, flow cytometry), SW480. The conditions noted are these: SW480; for EC50: Homo sapiens, overnight incubation, PI staining, flow cytometry, mean of 3 ± SEM, read-out: EC50 (G2/M arrest). The format is cell-based, human. How it is done:
Fig. 2 Antimitotic activity of WEHI-7326: cancer cell lines and effects on tubulin polymerization. a Dose-dependent antimitotic activity of WEHI-7326, nocodazol and taxol in tumor cell lines SW480 (colorectal) and MDA-MB-231 (breast). Data are presented as percentage of cells in G2/M after overnight incubation with increasing concentrations of inhibitors and PI staining followed by flow cytometry analysis. Mean average of 3 independent experiments ±SEM. b EC50 values (nM) for G2/M arrest on SW480 and MDA-MB-231 cell lines, given as mean average of 3 independent experiments ±SEM. c Western blot analysis of mitotic arrest in SW480 and MDA-MB-231 cells treated with EC50 concentrations of WEHI-7326 or Paclitaxel as marked by expression of phosho-S10 Histone H3 (p-HH3 S10), at different timepoints post treatment. Expression of β-actin provided as loading control. d Cell cycle analysis of LIM1899 cells 72 h post treatment with increasing concentrations of WEHI-7326 as measured by PI staining for DNA content followed by flow cytometry analysis. Sub-G1 represents apoptotic fractions and >4 N cell fractions of mitotic slippage. e Immunofluorescence confocal microscopy of tubulin polymerization in SW480 cells treated by various agents. Cells were incubated for 24 h with control (0.1% DMSO), nocodazole (1 μM), paclitaxel (1 μM), myoseverin B (1 μM) or WEHI-7326 (1 μM). Cells were fixed and stained with β-tubulin antibody (green) and DAPI (DNA; blue) and phalloidin (actin, red). Shown are single confocal sections and enlarged areas (3x) to highlight changes in microtubule network; scale bar = 20 μm. Representative images from 2 independent experiments. f Cellular tubulin polymerization assay in cells: SW480 cells were incubated overnight with paclitaxel, myoseverin B or WEHI-7326, then processed to detect fractions of polymerized (P) and soluble (S) tubulin by western blot analysis. Representative blot of 3 independent experiments. g Tubulin polymerization was assessed in vitro over time using a fluorescence-based tubulin polymerization assay (BK011P). Tubulin was incubated with control (DMSO), paclitaxel (3 μM), nocodazole (15 μM) and WEHI-7326 at indicated concentrations (in DMSO). Polymerization was measured by excitation at 360 nm and emission at 420 nm. Representative graph of 3 independent experiments performed in duplicates. […]
Cells in log growth were supplemented with fresh medium with either vehicle (control) or compound at the stated final concentrations. […] After 1 h incubation at room temperature in the dark, cells were analyzed on a FACScan (Becton and Dickinson) in CellQuest. The percentage of cells in each phase of the cell cycle was determined using ModFit software (Verity, http://www.vsh.com). Early and late apoptotic responses elicited by WEHI-7326 were assessed using Dead Cell Apoptosis Kit (ThermoFisher Scientific) with Annexin V FITC and PI following manufacturer’s instructions. Cells were incubated 24 h with 6-point, 4-fold titration of WEHI-7326, washed twice with cold 1X PBS, resuspended in 1X Annexin Binding Buffer, incubated with FITC Annexin V and PI for 15 mins at RT in the dark and subsequently analyzed by flow cytometry.

Assay [2] has as its system MDA-MB-231. Briefly: Cell cycle analysis (G2/M arrest, PI staining, flow cytometry), MDA-MB-231. Conditions: Homo sapiens; MDA-MB-231; overnight incubation, PI staining, flow cytometry; mean of 3 ± SEM; read-out: EC50 (G2/M arrest). The assay is classed as cell-based. How it is done:
Fig. 2 Antimitotic activity of WEHI-7326: cancer cell lines and effects on tubulin polymerization. a Dose-dependent antimitotic activity of WEHI-7326, nocodazol and taxol in tumor cell lines SW480 (colorectal) and MDA-MB-231 (breast). Data are presented as percentage of cells in G2/M after overnight incubation with increasing concentrations of inhibitors and PI staining followed by flow cytometry analysis. Mean average of 3 independent experiments ±SEM. b EC50 values (nM) for G2/M arrest on SW480 and MDA-MB-231 cell lines, given as mean average of 3 independent experiments ±SEM. c Western blot analysis of mitotic arrest in SW480 and MDA-MB-231 cells treated with EC50 concentrations of WEHI-7326 or Paclitaxel as marked by expression of phosho-S10 Histone H3 (p-HH3 S10), at different timepoints post treatment. Expression of β-actin provided as loading control. d Cell cycle analysis of LIM1899 cells 72 h post treatment with increasing concentrations of WEHI-7326 as measured by PI staining for DNA content followed by flow cytometry analysis. Sub-G1 represents apoptotic fractions and >4 N cell fractions of mitotic slippage. e Immunofluorescence confocal microscopy of tubulin polymerization in SW480 cells treated by various agents. […] Representative blot of 3 independent experiments. g Tubulin polymerization was assessed in vitro over time using a fluorescence-based tubulin polymerization assay (BK011P). […] Polymerization was measured by excitation at 360 nm and emission at 420 nm. […]
Cells in log growth were supplemented with fresh medium with either vehicle (control) or compound at the stated final concentrations. […] After 1 h incubation at room temperature in the dark, cells were analyzed on a FACScan (Becton and Dickinson) in CellQuest. The percentage of cells in each phase of the cell cycle was determined using ModFit software (Verity, http://www.vsh.com). Early and late apoptotic responses elicited by WEHI-7326 were assessed using Dead Cell Apoptosis Kit (ThermoFisher Scientific) with Annexin V FITC and PI following manufacturer’s instructions. […]

The test system of assay [3] is SW480. Nature of the assay: Cell growth inhibition assay, SW480. The format is cell-based, human. The conditions noted are these: SW480 colon cancer cell line in vitro. How it is done:
Cells were plated at a density of between 500 to 5000 cells per well for adherent cell lines depending on doubling time, and 15,000 cells per well for lymphoblastic leukemia cell lines, in a 96-well plate in 200 μl of growth media. Plates were incubated overnight at 37 °C before adding the inhibitors. Inhibitors were serially diluted from the stock solutions in complete medium and added to the cells. Incubation in the presence of inhibitors was continued for […]. Cell viability was assessed by the AlamarBlue (Invitrogen) or CellTiterBlue/Glo (Promega) method according to manufacturer’s instructions. The curve fits and IC50 values were generated in PRISM (GraphPad, San Diego, CA).
a Chemical structures of the triazine-based anti-mitotics used in this study. b Dose-dependent antiproliferative activity of key derivatives and comparison with commonly used anti-mitotics in SW480 cell line: Data shown is cell viability (as measured by CellTiterGlo) after 72 h relative to untreated control cells. Shown is mean of 3 independent experiments performed in duplicate +/- SEM. c Dose-dependent cell cycle analysis of key derivatives of WEHI-7326 development in SW480 cell line. Data are presented as percentage of cells in G2/M or subG0 after 24 h incubation with titration of inhibitors as assessed by PI staining and flow cytometry. Mean average of 3 experiments +/- SEM. d Comparison of IC50 and EC50 values of triazine compounds and anti-mitotic drugs in SW480 cell line: inhibition of cellular proliferation and cell cycle arrest in G2/M. IC50 and EC50 values are the mean of 3 independent experiments run in duplicates +/- SEM (n.d. = not determined). e HepG2 cytotoxic assay: cell viability assay after 48 h, normalised to 0.4% DMSO (100% viability) and 2 μM bortezomib (0% viability). The data is the mean average of 2 experiments +/- SD.

For assay [4], the system named is MDA-MB-231 LNA DRE (docetaxel resistant breast cancer) xenograft. Briefly: Orthotopic MDA-MB-231 LNA-DRE xenograft. The format is in vivo, Balb/c nude mice. Conditions: docetaxel 10 mg/kg weekly i.v., WEHI-7326 30 mg/kg biweekly i.v. How it is done: LoVo (4 × 10^6), PC3 (3 × 10^6) or MDA-MB-231 LNA DRE (10^6) cells were collected by trypsination and injected with 50 μl 1:1 PBS:Matrigel (v/v) subcutaneously on the right flank of 18 female (LoVo), 40 male (PC3) or into 4th mammary fat pad of 40 female (MDA231) Balb/c nude mice. Tumor growth was monitored and average tumor size at commencement of dosing was 100 mm^3. Mice were randomized into 3 arms of each 5 (LoVo), 10 (PC3) or 12 (MDA23) mice respectively and treatment with vehicle (saline), WEHI-7326 (biweekly) or docetaxel (weekly) was administered via tail vein injection. Tumor volumes were measured at least twice weekly with calipers and the experiments were terminated when tumors in the control group started exceeding 1500 mm^3. For LoVo, both vehicle and 25 mg/kg WEHI-7326 groups were harvested 24 h, but 20 mg/kg WEHI-7326 group harvested 1 h post final dose. For PC3, docetaxel group was not harvested in an attempt to grow out resistant tumors.

Assay [5] concerns 24 T TNBC PDX. Briefly: TNBC PDX model 24T. The assay is classed as in vivo, NOD-SCID-IL2Rγc–/– mice. The conditions noted are these: 24 T PDX; docetaxel 10 mg/kg i.p. once; WEHI-7326 20 mg/kg i.v. biweekly. How it is done:
(§1) Cohorts of about 30 female mice were seeded with thawed single cell suspensions of early passage human breast tumors (passage 2 or 3). Briefly, 150,000–250,000 cells were resuspended in 10 µl of transplantation buffer (50% fetal calf serum, 10% of a 0.04% trypan blue solution and 40% PBS) and growth-factor-reduced Matrigel [BD] at a ratio of 3:1, and injected into the cleared mammary fat pads of 3- or 4-week-old NOD-SCID-IL2Rγc–/– female mice. Mice were monitored for tumor development three times weekly and tumor size measured using digital Vernier calipers. Tumor volume was estimated by measuring the minimum and maximum tumor diameters using the formula: (minimum diameter)^2 x (maximum diameter)/2. Once tumors arose, mice were randomized into treatment arms. Treatment was initiated when the tumor volume reached 80–120 mm^3. Randomization and tumor measurements were managed using the Study Director software (v 3.0, studylog). Mice were sacrificed at the first measurement where tumor volume exceeded 600 mm^3, or if their health deteriorated for reasons other than disease progression or drug toxicity (censored event).
(§2) Mice were treated with either docetaxel (10 mg/kg; i.p.; once), cisplatin (4 mg/kg; i.p.; once) or WEHI-7326 (20 mg/kg; twice a week (Monday and Thursday); i.v.). Vehicle treated mice were administered with the vehicle for WEHI-7326. Docetaxel was resuspended at 2 mg/ml in PBS:Tween-80:ethanol = 90:5:5 (v/v/v). WEHI-7326 was resuspended at 2 mg/ml in saline.

The subject of assay [6] is 322 T TNBC PDX. Briefly: TNBC PDX model 322T. The format is in vivo, NOD-SCID-IL2Rγc–/– mice. The conditions noted are these: 322 T PDX; docetaxel 10 mg/kg i.p. once; WEHI-7326 20 mg/kg i.v. biweekly. How it is done: as §1, §2
Assay [7] has as its system MH792 LUSC PDX. Briefly: LUSC PDX model MH792. The conditions noted are these: MH792 PDX; WEHI-7326 20 mg/kg i.v. biweekly; docetaxel 10 mg/kg i.p. once. The assay is classed as in vivo, NOD-SCID-IL2Rγc–/– mice. How it is done:
(§3) LUSC PDXs were generated as described in[25]. PDXs at passage 4 were defrosted and washed with PBS before counting. 200,000 to 500,000 cells were then injected in a 50:50 PBS:Matrigel mix into the flanks of NOD-SCID-IL2Rγc–/– male mice. Tumors were measured twice weekly with calipers and treatment started when tumors were between 70–120 mm^3. Mice were assigned to treatment groups based on average tumor volume per group. Mice were culled when tumors reached a volume of 600 mm^3.

The test system of assay [8] is AH406 LUSC PDX. Briefly: LUSC PDX model AH406. The assay is classed as in vivo, NOD-SCID-IL2Rγc–/– mice. Conditions: WEHI-7326 20 mg/kg i.v. biweekly, docetaxel 10 mg/kg i.p. once. How it is done: as §3

For the molecule `COC(=O)Nc1nc2ccc(C(=O)c3cccs3)cc2[nH]1` [Nocodazol, nocodazole, reference compound], the EC50 in assay [1] came out at 57.4 ± 5.9 nM; in assay [2], 37.2 ± 7.2 nM.
On the same counts, the results for `CC(=O)O[C@H]1C(=O)[C@@]2(C)[C@H]([C@H](OC(=O)c3ccccc3)[C@]3(O)C[C@H](OC(=O)[C@H](O)[C@@H](NC(=O)c4ccccc4)c4ccccc4)C(C)=C1C3(C)C)[C@]1(OC(C)=O)CO[C@@H]1C[C@@H]2O` [Paclitaxel, paclitaxel, reference compound] are 39.3 ± 4.1 nM and 5.6 ± 3.1 nM.
Regarding `COc1ccc(CNc2nc(NCc3ccc(OC)cc3)nc(NN3CC(=O)NC3=O)n2)cc1` [compound 6], in assay [3], the Concentration inhibiting proliferation entry is reported as “at or below micromolar concentration”. Moreover, the “G2/M cell cycle arrest” value in assay [1] is on record as “strong G2/M cell cycle arrest”.
Turning to `CC(=O)O[C@@]12CO[C@@H]1C[C@H](O)[C@@]1(C)C(=O)[C@H](O)C3=C(C)[C@@H](OC(=O)[C@H](O)[C@@H](NC(=O)OC(C)(C)C)c4ccccc4)C[C@@](O)([C@@H](OC(=O)c4ccccc4)[C@H]21)C3(C)C` [docetaxel, reference compound], in assay [4], the “Tumor growth inhibition (TGI)” value is 70%. Besides, the results for the Survival time in assay [5] and in assay [6] were 11 days and 7 days, respectively. For the same molecule, the figures for the Median survival in assay [7] and in assay [8] were 22 days and 24 days, respectively.
